Activity calls are given as the source filed them. No cut-off for these calls is given here.
Legend:
Format in all cases: functional, cell-based
[1] = tested on: BMMSC; assay: Induction of adipogenesis in human BMMSC cells assessed as increase in ACACB mRNA at 10 uM incubated for 3 days by qRT-PCR analysis; conditions: time 3.0 day
[2] = tested on: BMMSC; assay: Induction of adipogenesis in human BMMSC cells assessed as increase in ACOX1 mRNA at 10 uM incubated for 3 days by qRT-PCR analysis; conditions: time 3.0 day
[3] = tested on: BMMSC; assay: Induction of adipogenesis in human BMMSC cells assessed as increase in HMGCS2 mRNA at 10 uM incubated for 3 days by qRT-PCR analysis; conditions: time 3.0 day
[4] = tested on: BMMSC; assay: Induction of adipogenesis in human BMMSC cells assessed as increase in HMGCR mRNA at 10 uM incubated for 3 days by qRT-PCR analysis; conditions: time 3.0 day
[5] = tested on: BMMSC; assay: Induction of adipogenesis in human BMMSC cells assessed as increase in HMGCS2 mRNA at 1 uM incubated for 3 days by qRT-PCR analysis; conditions: time 3.0 day
[6] = tested on: BMMSC; assay: Induction of adipogenesis in human BMMSC cells assessed as increase in HMGCR mRNA at 1 uM incubated for 3 days by qRT-PCR analysis; conditions: time 3.0 day
[7] = tested on: BMMSC; assay: Induction of adipogenesis in human BMMSC cells assessed as increase in ACOX1 mRNA at 1 uM incubated for 3 days by qRT-PCR analysis; conditions: time 3.0 day
[8] = tested on: BMMSC; assay: Induction of adipogenesis in human BMMSC cells assessed as increase in ACACB mRNA at 1 uM incubated for 3 days by qRT-PCR analysis; conditions: time 3.0 day
[9] = tested on: BMMSC; assay: Induction of adipogenesis in human BMMSC cells assessed as increase in ANGPTL4 mRNA at 1 uM incubated for 3 days by qRT-PCR analysis; conditions: time 3.0 day
[10] = tested on: BMMSC; assay: Induction of adipogenesis in human BMMSC cells assessed as increase in adiponectin secretion at 10 uM incubated for 5 days by ELISA; conditions: time 5.0 day

| SMILES | Activity [1] | Activity [2] | Activity [3] | Activity [4] | Activity [5] | Activity [6] | Activity [7] | Activity [8] | Activity [9] | Activity [10] |
| --- | --- | --- | --- | --- | --- | --- | --- | --- | --- | --- |
| Cc1cccc(Nc2cc(Cl)nc(SCC(=O)O)n2)c1C | Active | Active | Active | Active |  |  |  |  |  |  |
| Cc1cc(SCc2sc(-c3ccc(C(F)(F)F)cc3)nc2C)ccc1OCC(=O)O |  |  |  |  | inactive | Active | inactive | Active | Active |  |
| C=CC(c1ccc(OC)c(OC)c1)c1c(O)cc(O)c2c(=O)cc(-c3ccccc3)oc12 (stereo not given) |  |  |  |  |  |  |  |  |  | Active |
| CCc1ccc(CCOc2ccc(CC3SC(=O)NC3=O)cc2)nc1 (stereo not given) |  |  |  |  | inactive | Active | inactive | Active | Active |  |
